Laboratory results published in US20160075689A1, “POLYMERASE, ENDONUCLEASE, AND HELICASE INHIBITORS AND METHODS OF USING THEREOF” (THE BOARD OF TRUSTEES OF THE UNIVERSITY OF ARKANSAS, priority 2013, published 2016).

Assays:
SOD = SOD activity in NRK-52E cell extract; assay type: biochemical; conditions: 0.1 μM and 10 μM
Method: (§1) As a follow up to Example 8, the effects of the EndoG inhibitors PNR-3-80 and PNR-3-82, at 0.1 μM and 10 μM each, on the activities of four other enzymes including RNase A, protease, LDH, and SOD in NRK-52E cell extract were examined. NRK-52E cells were grown to ˜80% confluence in […]. The medium was aspirated and the cells were rinsed with ice cold 1×PBS, pH 7.4. The cells were lysed in 50 mM Tris-HCl, pH 7.4, 150 mM NaCl, 1% Triton X-100 for 10 min on ice and then briefly sonicated. Cell debris was removed by centrifugation at 13,000×g for 10 min at 4° C. The supernatant was collected and stored at −80° C. until use. LDH, Protease, Superoxide dismutase (SOD), and Ribonuclease A (RNase A) activities were measured by using CytoTox 96® Non-Radioactive Cytotoxicity Assay kit (Promega, Madison, Wis.), Protease Fluorescent Detection kit (Sigma-Aldrich, Saint Louis, Mo.), SOD determination kit (Sigma-Aldrich, Saint Louis, Mo.), and Ribonuclease A Detection kit (Sigma-Aldrich, Saint Louis, Mo.), respectively, according to the manufacturer's instructions.

protease = experiment: Protease activity in NRK-52E cell extract; assay type: biochemical; conditions: 0.1 μM and 10 μM
Method: as §1

DNase II = biological target: T1, DNase II (Homo sapiens, UniProt O00115); experiment: Endonuclease screening assay, specificity; assay type: biochemical
T1 sequence (O00115 19-360): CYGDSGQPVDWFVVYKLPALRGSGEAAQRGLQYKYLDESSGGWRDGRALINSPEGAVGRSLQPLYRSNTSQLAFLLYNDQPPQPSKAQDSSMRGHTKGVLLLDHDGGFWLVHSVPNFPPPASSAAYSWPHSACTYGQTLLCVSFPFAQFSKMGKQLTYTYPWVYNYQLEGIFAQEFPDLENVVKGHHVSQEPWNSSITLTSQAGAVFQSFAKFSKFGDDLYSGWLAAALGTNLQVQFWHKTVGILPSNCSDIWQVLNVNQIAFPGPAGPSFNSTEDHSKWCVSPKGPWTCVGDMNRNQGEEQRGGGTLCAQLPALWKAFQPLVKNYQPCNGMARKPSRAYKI
Excerpt: (§2) Specificity of a potential inhibitor is important for any in vitro or in vivo application, and generally defines the usefulness of an inhibitor. To determine specificity of the inhibitors for the two EndoG inhibitors, PNR-3-80 and PNR-3-82, their IC50 values for EndoG were compared using the screening assay with the IC50 values for two other endonucleases, DNase I and DNAse II (FIG. 11). These endonucleases were chosen because they represent the majority of endonuclease activity in most mammalian cells and because of their availability as pure enzymes.
(§3) A reaction mixture was prepared in each well of a white 96-well plate (Costar, Corning, N.Y.) as follows: 0.25 μM Cy5.5-labeled oligonucleotide (described in US provisional patent filed Oct. 19, 2012, Ser. No. 61/716,097) 0.3 mM MgCl2, 10 mM Tris-HCl, pH 7.4, 1 μl DMSO containing 5 or 50 ng of test compound, and nuclease-free water for a total reaction volume of 100 μl. The background (negative control) and uninhibited EndoG samples were measured using DMSO only, or DMSO containing recombinant EndoG (4 μg/ml), respectively. After addition of EndoG, fluorescence intensity was kinetically measured on a Bio-Tek Synergy 4.0 plate reader at 37° C. and mean velocity (mRFU/min) within 20 min was automatically calculated by the plate reader. The background was subtracted prior to the calculation of EndoG activity (%). The percent of EndoG activity was calculated from the mean velocity of a compound divided by the mean velocity of DMSO with recombinant EndoG, and the obtained value multiplied by 100.

DNase I = biological target: T2, DNase I (Homo sapiens, UniProt P24855); experiment: Endonuclease screening assay, specificity; assay type: biochemical
T2 sequence (P24855 23-282): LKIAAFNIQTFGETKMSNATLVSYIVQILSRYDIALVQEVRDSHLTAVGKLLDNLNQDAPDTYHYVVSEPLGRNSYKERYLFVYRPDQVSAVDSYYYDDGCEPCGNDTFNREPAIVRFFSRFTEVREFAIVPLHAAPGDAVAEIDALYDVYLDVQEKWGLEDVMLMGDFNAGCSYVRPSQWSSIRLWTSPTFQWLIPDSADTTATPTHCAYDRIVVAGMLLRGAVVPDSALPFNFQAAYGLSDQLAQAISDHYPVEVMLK
Excerpt: as §2, §3

NS3-4A = NS3-4A (Hepatitis C virus genotype 1b, UniProt P26663); experiment: NS3 protease activity assay; assay type: biochemical, HCV; conditions: 25 μM compound, 50 nM NS3-4A, 100 nM substrate
Method: The protease activity of NS3 was analyzed in the presence of 25 μM ITBA-3-79, ITBA-3-82 or ITBA-3-85 by using 50 nM NS3-4A and 100 nM substrate (Ac-Asp-Glu-Asp-EDANS-Glu-Glu-Abu-L-Lactoyl-Ser-Lys DABCYL-NH2). The emission spectra of EDANS and the absorption spectra of DABCYL overlap making the peptide internally quenched. Cleaving of the substrate by the protease results in an increase in fluorescence that can be measured (λex−355 nm; λem, −500 nm). Telapravir (10 μM) was used as a positive control.

NS3 helicase = biological target: T3, NS3 helicase (Hepatitis C virus genotype 1b, UniProt P26663); experiment: Gel-based helicase assay; assay type: biochemical, HCV; conditions: standard helicase assay
T3 construct: analyze the helicase activity of NS3 helicase in the presence of the compounds; made in house
Method: Benchtop unwinding assays were performed to analyze the helicase activity of NS3 helicase in the presence of the compounds. The unwinding reaction was initiated by mixing the right (N53, compound, assay buffer) and left (radiolabeled substrate, ATP, assay buffer) reactions, which was then quenched. The ssDNA product formed over time is separated from dsDNA substrate by 20% native PAGE. The ratio of dsDNA substrate to ssDNA product is quantified using ImageQuant and the fraction of substrate unwound at each time-point is plotted as a function of time using Kaleidagraph software.

T3 sequence (P26663 1027-1657): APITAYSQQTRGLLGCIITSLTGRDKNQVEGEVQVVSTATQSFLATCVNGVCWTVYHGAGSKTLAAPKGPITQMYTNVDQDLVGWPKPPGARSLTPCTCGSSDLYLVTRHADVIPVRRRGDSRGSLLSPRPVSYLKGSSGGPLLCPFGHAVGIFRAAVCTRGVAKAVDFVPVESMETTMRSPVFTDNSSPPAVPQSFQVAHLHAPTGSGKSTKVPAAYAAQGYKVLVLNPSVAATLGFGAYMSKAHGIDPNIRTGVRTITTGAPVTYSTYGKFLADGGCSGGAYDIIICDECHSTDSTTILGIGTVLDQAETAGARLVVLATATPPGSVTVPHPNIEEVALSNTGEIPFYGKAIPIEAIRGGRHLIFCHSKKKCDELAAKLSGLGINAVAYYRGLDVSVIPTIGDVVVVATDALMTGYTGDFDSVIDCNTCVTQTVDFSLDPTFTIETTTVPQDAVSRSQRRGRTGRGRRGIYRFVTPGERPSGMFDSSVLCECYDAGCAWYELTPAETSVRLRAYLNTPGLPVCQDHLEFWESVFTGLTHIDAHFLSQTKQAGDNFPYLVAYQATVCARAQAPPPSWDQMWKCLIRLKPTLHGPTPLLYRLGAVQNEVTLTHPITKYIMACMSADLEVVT
Chain of NS3-4A (P26663 1027-1657): as above
Chain of NS3-4A (P26663 1658-1711): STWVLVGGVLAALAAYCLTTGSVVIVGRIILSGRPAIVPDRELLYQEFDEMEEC

## COc1ccc2c(c1)c(C=C1C(=O)NC(=S)NC1=O)cn2C(=O)c1ccc2ccccc2c1 [PNR-3-82]
SOD
  SOD activity: none of the two tested compounds had any inhibiting activity
protease
  protease activity: none of the two tested compounds had any inhibiting activity
DNase II
  effect on DNase II activity: did not have any effect
DNase I
  IC50: 63.3 µM
NS3-4A
  NS3 protease activity: do not block protease activity
NS3 helicase
  NS3 helicase activity, gel electrophoresis: confirmed the inhibition
